Experimental data published in patent US12643912B2, “Macrocyclic compounds, a process for their preparation and pharmaceutical compositions containing them” (LES LABORATOIRES SERVIER, priority 2020, dated 2026).
Where two headings read alike, the source gives them in different places.

Key:
[1] = tested on: Nrf2 (Keap1-NRF2 nuclear translocation); test: U2OS translocation assay (PathHunter U2OS Keap1-NRF2 Nuclear Translocation Cell Line); format: cell-based
Method in brief: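 PathHunter U2OS line expressing Nrf2-enzyme-donor fusion and nuclear acceptor enzyme, 7 500 cells/well in Opti-MEM, 1% FBS. Compounds incubated 3 h at 37° C. Luminescence after 60 min with detection reagent, normalized between 1% DMSO and 10 μM andrographolide.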

Keap1 (A321-C624) (h) = biological target: T1, Keap1 (A321-C624) (h) (Homo sapiens, UniProt Q14145); test: Surface Plasmon Resonance binding assay to Kelch domain of KEAP1; conditions: Biacore T200, 25° C., immobilized His-Thromb-KEAP1(A321-C624), single cycle kinetics, KD=kd/ka from 1:1 fit; read-out: Keap1 (A321-C624) (h) direct/SPR (KD)
T1 construct: His-Thromb-KEAP1(A321-C624) acquired from Novalix (batch PU-P01) was immobilized covalently by amine coupling; His tag (N); thrombin cleavage site (Thromb) (N); purchased Novalix batch PU-P01
T1 sequence (Q14145 321-624): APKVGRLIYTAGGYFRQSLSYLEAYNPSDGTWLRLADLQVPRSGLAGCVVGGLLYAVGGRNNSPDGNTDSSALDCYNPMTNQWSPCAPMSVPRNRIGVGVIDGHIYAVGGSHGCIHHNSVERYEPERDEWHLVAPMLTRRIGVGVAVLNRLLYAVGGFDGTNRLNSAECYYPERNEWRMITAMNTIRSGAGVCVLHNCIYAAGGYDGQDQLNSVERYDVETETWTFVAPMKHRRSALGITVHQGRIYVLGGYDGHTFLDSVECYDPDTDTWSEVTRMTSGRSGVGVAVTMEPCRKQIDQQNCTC
Method: EXAMPLE 85: SURFACE PLASMON RESONANCE
Binding assay to Kelch domain of KEAP1 was performed by Surface Plasmon Resonance (SPR) on a Biacore T200 (GE Healthcare) at 25° C. using CM5 chip. His-Thromb-KEAP1(A321-C624) acquired from Novalix (batch PU-P01) was immobilized covalently by amine coupling using standard wizard protocol, at a concentration of 20 μg/mL in sodium acetate pH 5.5. The ligand was captured until 1250 RU was reached. Amine blank is used as the reference flow cell. Binding of analyte to the ligand was monitored in real time with associations of 180 seconds and a dissociation of 720 seconds. Association (ka) and dissociation (kd) rates were fitted with a simple 1:1 kinetic interaction model using Biacore T200 Evaluation Software (GE Healthcare). The equilibrium constant (KD=kd/ka) was calculated from these fitted parameters. […] The Biacore binding assay was performed with a flowrate of 50 μL/min using a running buffer of 10 mM HEPES (pH 7.4), 150 mM NaCl, 3 mM EDTA, 1 mM TCEP, 0.05% P20,5% DMSO. Double subtraction was used by subtracting both reference flow cell and previous blank cycle (with running buffer). Solvent correction was applied to correct DMSO bulk effect.

[2] = read-out: CELLULAR U2OS EC50, U2OS Keap1-NRF2 nuclear translocation cells, 3 h incubation, luminescence, normalized between 1% DMSO and 10 μM andrographolide
[3] = Homo sapiens, U2OS, 3 h, read-out: CELLULAR U2OS EC50 (nM), U2OS Keap1-NRF2 nuclear translocation cells, 3 h incubation, luminescence, normalized between 1% DMSO and 10 μM andrographolide

Row | Kd (Keap1 (A321-C624) (h)) | SMILES | EC50 [1, 2] | EC50 [1, 3]
1 | 7.45 µM | COc1cc2cc(c1OC)CN1Cc3cc(ccc3OS1(=O)=O)OCCCCn1nnc3c(C)c(ccc31)C2CC(=O)O (single isomer, unassigned) [Example 35b, [4,5-Dimethoxy-31-methyl-27,27-dioxo-21,26-dioxa-27λ^6-thia-1,14,15,16-tetraazahexacyclo[20.5.3.1^3,70.1^9,130.0^12,160.0^25,29]dotriaconta-3(32),4,6,9(31),10,12,14,22,24,29-decaen-8-yl]acetic acid] | > 3160 nM | –
2 | 0.00902 µM | Cc1cc2cc(c1Cl)CN1Cc3cc(ccc3OS1(=O)=O)OCCCCn1nnc3c(C)c(ccc31)C2CC(=O)O (single isomer, unassigned) [Example 36a, [4-Chloro-5,31-dimethyl-27,27-dioxo-21,26-dioxa-27λ^6-thia-1,14,15,16-tetraazahexacyclo[20.5.3.1^3,70.1^9,130.0^12,160.0^25,29]dotriaconta-3(32),4,6,9(31),10,12,14,22,24,29-decaen-8-yl]acetic acid] | 126 nM | –
3 | 0.0325 µM | Cc1cc2cc(c1Cl)CN1Cc3cc(ccc3OS1(=O)=O)OCCCCn1nnc3c(C)c(ccc31)C2CC(=O)O (single isomer, unassigned) [Example 36b, [4-Chloro-5,31-dimethyl-27,27-dioxo-21,26-dioxa-27λ^6-thia-1,14,15,16-tetraazahexacyclo[20.5.3.1^3,70.1^9,130.0^12,160.0^25,29]dotriaconta-3(32),4,6,9(31),10,12,14,22,24,29-decaen-8-yl]acetic acid] | 1260 nM | –
4 | 0.0751 µM | COc1c(Cl)cc2cc1CN1Cc3cc(ccc3OS1(=O)=O)OCCCCn1nnc3c(C)c(ccc31)C2CC(=O)O (single isomer, unassigned) [Example 37a, [5-Chloro-4-methoxy-31-methyl-27,27-dioxo-21,26-dioxa-27λ^6-thia-1,14,15,16-tetraazahexacyclo[20.5.3.1^3,70.1^9,130.0^12,160.0^25,29]dotriaconta-3(32),4,6,9(31),10,12,14,22,24,29-decaen-8-yl]acetic acid] | 1300 nM | –
5 | 0.529 µM | COc1c(Cl)cc2cc1CN1Cc3cc(ccc3OS1(=O)=O)OCCCCn1nnc3c(C)c(ccc31)C2CC(=O)O (single isomer, unassigned) [Example 37b, [5-Chloro-4-methoxy-31-methyl-27,27-dioxo-21,26-dioxa-27λ^6-thia-1,14,15,16-tetraazahexacyclo[20.5.3.1^3,70.1^9,130.0^12,160.0^25,29]dotriaconta-3(32),4,6,9(31),10,12,14,22,24,29-decaen-8-yl]acetic acid] | > 3160 nM | –
6 | 0.604 µM | COc1cc2cc(c1Cl)CN1Cc3cc(ccc3OS1(=O)=O)OCCCCn1nnc3c(C)c(ccc31)C2CC(=O)O (single isomer, unassigned) [Example 38b, [4-Chloro-5-methoxy-31-methyl-27,27-dioxo-21,26-dioxa-27λ^6-thia-1,14,15,16-tetraazahexacyclo[20.5.3.1^3,70.1^9,130.0^12,160.0^25,29]dotriaconta-3(32),4,6,9(31),10,12,14,22,24,29-decaen-8-yl]acetic acid] | – | > 3160 nM
7 | 0.000137 µM | Cc1ccc2cc1CN1Cc3cc(ccc3N(C)S1(=O)=O)OCCCCn1nnc3c(C)c(ccc31)C2CC(=O)O (single isomer, unassigned) [Example 39a, [4,26,31-Trimethyl-27,27-dioxo-21-oxa-27λ^6-thia-1,14,15,16,26-pentaazahexacyclo[20.5.3.1^3,70.1^9,130.0^12,160.0^25,29]dotriaconta-3(32),4,6,9(31),10,12,14,22,24,29-decaen-8-yl]acetic acid] | 14.2 nM | –
8 | 0.000685 µM | Cc1ccc2cc1CN1Cc3cc(ccc3N(C)S1(=O)=O)OCCCCn1nnc3c(C)c(ccc31)C2CC(=O)O (single isomer, unassigned) [Example 39b, [4,26,31-Trimethyl-27,27-dioxo-21-oxa-27λ^6-thia-1,14,15,16,26-pentaazahexacyclo[20.5.3.1^3,70.1^9,130.0^12,160.0^25,29]dotriaconta-3(32),4,6,9(31),10,12,14,22,24,29-decaen-8-yl]acetic acid] | 79.5 nM | –
9 | 0.000594 µM | Cc1ccc2cc1CN1Cc3cc(ccc3OS1(=O)=O)OC[C@H](C)CCn1nnc3c(C)c(ccc31)C2CC(=O)O (single isomer, unassigned) [Example 45a] | 11.8 nM | –
10 | 0.00235 µM | Cc1ccc2cc1CN1Cc3cc(ccc3OS1(=O)=O)OC[C@H](C)CCn1nnc3c(C)c(ccc31)C2CC(=O)O (single isomer, unassigned) [Example 45b] | 144 nM | –
11 | 0.0477 µM | COc1ccc2cc1CN1Cc3cc(ccc3OS1(=O)=O)OCc1ccccc1OCCCCn1nnc3c(C)c(ccc31)C2CC(=O)O (single isomer, unassigned) [Example 53a, [4-Methoxy-39-methyl-35,35-dioxo-21,29,34-trioxa-35λ^6-thia-1,14,15,16-tetraazaheptacyclo[28.5.3.1^3,70.1^9,130.0^12,160.0^22,270.0^33,37]tetraconta-3(40),4,6,9(39),10,12,14,22,24,26,30,32,37-tridecaen-8-yl]acetic acid] | 369 nM | –
12 | 0.176 µM | COc1ccc2cc1CN1Cc3cc(ccc3OS1(=O)=O)OCc1ccccc1OCCCCn1nnc3c(C)c(ccc31)C2CC(=O)O (single isomer, unassigned) [Example 53b, [4-Methoxy-39-methyl-35,35-dioxo-21,29,34-trioxa-35λ^6-thia-1,14,15,16-tetraazaheptacyclo[28.5.3.1^3,70.1^9,130.0^12,160.0^22,270.0^33,37]tetraconta-3(40),4,6,9(39),10,12,14,22,24,26,30,32,37-tridecaen-8-yl]acetic acid] | 899 nM | –
13 | 0.0905 µM | COc1ccc2cc1CN1Cc3cc(ccc3OS1(=O)=O)OCc1ccccc1SCCCCn1nnc3c(C)c(ccc31)C2CC(=O)O (single isomer, unassigned) [Example 54a] | – | 1290 nM
14 | 0.391 µM | COc1ccc2cc1CN1Cc3cc(ccc3OS1(=O)=O)OCc1ccccc1SCCCCn1nnc3c(C)c(ccc31)C2CC(=O)O (single isomer, unassigned) [Example 54b] | 2270 nM | –
15 | 0.0589 µM | Cc1ccc2cc1CN1Cc3cc(ccc3OS1(=O)=O)OCc1ccccc1OCCCn1nnc3c(C)c(ccc31)C2CC(=O)O (single isomer, unassigned) [Example 57a, [4,38-Dimethyl-34,34-dioxo-20,28,33-trioxa-34λ^6-thia-1,14,15,16-tetraazaheptacyclo[27.5.3.1^3,70.1^9,130.0^12,160.0^21,260.0^32,36]nonatriaconta-3(39),4,6,9(38),10,12,14,21,23,25,29,31,36-tridecaen-8-yl]acetic acid] | 496 nM | –
16 | 0.498 µM | Cc1ccc2cc1CN1Cc3cc(ccc3OS1(=O)=O)OCc1ccccc1OCCCn1nnc3c(C)c(ccc31)C2CC(=O)O (single isomer, unassigned) [Example 57b, [4,38-Dimethyl-34,34-dioxo-20,28,33-trioxa-34λ^6-thia-1,14,15,16-tetraazaheptacyclo[27.5.3.1^3,70.1^9,130.0^12,160.0^21,260.0^32,36]nonatriaconta-3(39),4,6,9(38),10,12,14,21,23,25,29,31,36-tridecaen-8-yl]acetic acid] | 2820 nM | –

Row | SMILES | Kd (Keap1 (A321-C624) (h)) | EC50 [1, 2] | EC50 [1, 3]
17 | Cc1ccc2cc1CN1Cc3cc(ccc3OS1(=O)=O)OCCN(c1ccccc1)CCn1nnc3c(C)c(ccc31)C2CC(=O)O (single isomer, unassigned) [Example 58a, [4,32-Dimethyl-28,28-dioxo-19-phenyl-22,27-dioxa-28λ^6-thia-1,14,15,16,19-pentaazahexacyclo[21.5.3.1^3,70.1^9,130.0^12,160.0^26,30]tritriaconta-3(33),4,6,9(32),10,12,14,23,25,30-decaen-8-yl]acetic acid] | 0.00466 µM | 90.4 nM | –
18 | Cc1ccc2cc1CN1Cc3cc(ccc3OS1(=O)=O)OCCN(c1ccccc1)CCn1nnc3c(C)c(ccc31)C2CC(=O)O (single isomer, unassigned) [Example 58b, [4,32-Dimethyl-28,28-dioxo-19-phenyl-22,27-dioxa-28λ^6-thia-1,14,15,16,19-pentaazahexacyclo[21.5.3.1^3,70.1^9,130.0^12,160.0^26,30]tritriaconta-3(33),4,6,9(32),10,12,14,23,25,30-decaen-8-yl]acetic acid] | 0.0125 µM | 427 nM | –
